# Data taken from ChEMBL document CHEMBL4414548 (J Med Chem, 2019).
# How the values were obtained:
# [1] = Cmax in Balb/c mouse assessed as 6-((5-Fluoropyridin-2-yl)amino)-4-((2-(methylsulfonyl)phenyl)amino)nicotinamide level at 3 mg/kg, iv after 1 hr; assay type: ADME, organism-based; parameters: dose 3 mg/kg, route intravenous; settings: in vivo
# [2] = Drug concentration in Balb/c mouse at 3 mg/kg, iv after 0.5 hrs; assay type: ADME, organism-based; settings: in vivo, read-out: Drug uptake
# [3] = Unbound drug level in rabbit at 1 to 10 mg/kg, iv; assay type: ADME, organism-based, Oryctolagus cuniculus; settings: in vivo
# [4] = Cmax in Balb/c mouse assessed as 6-((5-Fluoropyridin-2-yl)amino)-4-((2-(methylsulfonyl)phenyl)amino)nicotinamide level at 10 mg/kg, po after 1 hr; assay type: ADME, organism-based; parameters: dose 10 mg/kg, route oral; settings: in vivo
# [5] = Cmax in Balb/c mouse assessed as 6-((5-Fluoropyridin-2-yl)amino)-4-((2-(methylsulfonyl)phenyl)amino)nicotinamide level at 3 mg/kg, iv after 3 hrs; assay type: ADME, organism-based; parameters: dose 3 mg/kg, route intravenous; settings: in vivo
# [6] = Cmax in Balb/c mouse assessed as 6-((5-Fluoropyridin-2-yl)amino)-4-((2-(methylsulfonyl)phenyl)amino)nicotinamide level at 3 mg/kg, iv after 0.05 hrs; assay type: ADME, organism-based; parameters: dose 3 mg/kg, route intravenous; settings: in vivo
# [7] = Permeability across apical to basolateral side in human Caco2 cells; assay type: ADME, cell-based; settings: Caco-2, read-out: permeability
# [8] = Metabolic stability in human liver microsomes assessed as parent compound remaining after 10 mins; assay type: ADME, Microsome; settings: read-out: Stability
# [9] = Half life in mouse liver microsomes; assay type: ADME, Microsome
# [10] = Efflux ratio of permeability in human Caco2; assay type: ADME, cell-based; settings: Caco-2
# [11] = AUClast in Balb/c mouse at 10 mg/kg, po; assay type: ADME, organism-based; parameters: dose 10 mg/kg, time 0 - last, route oral; settings: in vivo
# [12] = target: JAK3/JAK1 (Homo sapiens, UniProt P23458+P52333); test: Inhibition of JAK1/JAK3 (unknown origin) in IL-2 stimulated cells by cell based assay
# [13] = Cmax in Balb/c mouse assessed as 6-((5-Fluoropyridin-2-yl)amino)-4-((2-(methylsulfonyl)phenyl)amino)nicotinamide level at 3 mg/kg, iv after 5 hrs; assay type: ADME, organism-based; parameters: dose 3 mg/kg, route intravenous; settings: in vivo
# [14] = Drug concentration in Balb/c mouse at 3 mg/kg, iv after 1 hr; assay type: ADME, organism-based; settings: in vivo, read-out: Drug uptake
# [15] = AUClast in Balb/c mouse at 3 mg/kg, iv; assay type: ADME, organism-based; parameters: dose 3 mg/kg, route intravenous, time 0 - last; settings: in vivo
# [16] = Drug concentration in Balb/c mouse at 10 mg/kg, po after 5 hrs; assay type: ADME, organism-based; settings: in vivo, read-out: Drug uptake
# [17] = target: T1, Non-receptor tyrosine-protein kinase TYK2 (Homo sapiens, UniProt P29597); test: Inhibition of fluorescein-labeled kinase tracer binding to His-TVMV-fused TYK2 JH2 domain (575 to 869 residues) (unknown origin) measured after 90 mins by HTRF assay
# [18] = AUClast in mouse at 10 mg/kg, po after 7 hrs; assay type: ADME, organism-based; parameters: time < 7 hr, dose 10 mg/kg, route oral; settings: in vivo
# [19] = Half life in cynomolgus monkey liver microsomes; assay type: ADME, Macaca fascicularis, Microsome
# [20] = target: Tyrosine-protein kinase JAK1 (Homo sapiens, UniProt P23458); test: Inhibition of JAK1 JH1 domain (unknown origin)
# [21] = Cmax in Balb/c mouse assessed as 6-((5-Fluoropyridin-2-yl)amino)-4-((2-(methylsulfonyl)phenyl)amino)nicotinamide level at 10 mg/kg, po after 0.05 hrs; assay type: ADME, organism-based; parameters: dose 10 mg/kg, route oral; settings: in vivo
# [22] = Clearance in Balb/c mouse at 3 mg/kg, iv; assay type: ADME, organism-based; settings: in vivo
# [23] = target: JAK2/TYK2 (Homo sapiens, UniProt O60674+P29597); test: Inhibition of TYK2/JAK2 in IL23-stimulated human Kit225 cells by steady-glo luciferase assay
# [24] = Drug concentration in Balb/c mouse at 10 mg/kg, po after 3 hrs; assay type: ADME, organism-based; settings: in vivo, read-out: Drug uptake
# [25] = Cmax in mouse at 10 mg/kg, po after 7 hrs; assay type: ADME, organism-based; parameters: dose 10 mg/kg, route oral; settings: in vivo
# [26] = target: Tyrosine-protein kinase JAK2 (Homo sapiens, UniProt O60674); test: Inhibition of JAK2 JH1 domain (unknown origin)
# [27] = target: JAK2/JAK1 (Homo sapiens, UniProt O60674+P23458); test: Inhibition of JAK1/JAK2 (unknown origin) in GM-CSF stimulated cells by cell based assay
# [28] = target: T1, Non-receptor tyrosine-protein kinase TYK2; test: Inhibition of TYK2 JH1 domain (unknown origin)
# [29] = Drug concentration in Balb/c mouse at 10 mg/kg, po after 7 hrs; assay type: ADME, organism-based; settings: in vivo, read-out: Drug uptake
# [30] = Drug concentration in Balb/c mouse at 10 mg/kg, po after 0.5 hrs; assay type: ADME, organism-based; settings: in vivo, read-out: Drug uptake
# [31] = Drug concentration in Balb/c mouse at 3 mg/kg, iv after 0.05 hrs; assay type: ADME, organism-based; settings: in vivo, read-out: Drug uptake
# [32] = Half life in dog liver microsomes; assay type: ADME, Canis lupus familiaris, Microsome
# [33] = Volume of distribution at steady state in Balb/c mouse at 3 mg/kg, iv; assay type: ADME, organism-based; settings: in vivo, read-out: Vdss
# [34] = target: T1, Non-receptor tyrosine-protein kinase TYK2; test: Inhibition of TYK2 JH2 domain in human whole blood assessed as inhibition of IFNalpha-induced STAT5 phosphorylation preincubated for 1 hr followed by IFNalpha stimulation and measured after 15 mins by fluorescence assay; assay type: tissue-based
# [35] = Cmax in Balb/c mouse assessed as 6-((5-Fluoropyridin-2-yl)amino)-4-((2-(methylsulfonyl)phenyl)amino)nicotinamide level at 10 mg/kg, po after 7 hrs; assay type: ADME, organism-based; parameters: dose 10 mg/kg, route oral; settings: in vivo
# [36] = target: Non-receptor tyrosine-protein kinase TYK2 (Mus musculus, UniProt Q9R117); test: Inhibition of TYK2 JH2 domain in mouse whole blood assessed as inhibition of IFNalpha-induced STAT1 phosphorylation preincubated for 1 hr followed by IFNalpha stimulation and measured after 15 mins by fluorescence assay; assay type: tissue-based
# [37] = Cmax in anesthetized rabbit at 1 to 10 mg/kg, iv; assay type: ADME, organism-based, Oryctolagus cuniculus; settings: in vivo
# [38] = Half life in Balb/c mouse at 3 mg/kg, iv; assay type: ADME, organism-based; settings: in vivo
# [39] = Cmax in Balb/c mouse assessed as 6-((5-Fluoropyridin-2-yl)amino)-4-((2-(methylsulfonyl)phenyl)amino)nicotinamide level at 3 mg/kg, iv after 7 hrs; assay type: ADME, organism-based; parameters: dose 3 mg/kg, route intravenous; settings: in vivo
# [40] = Drug concentration in Balb/c mouse at 10 mg/kg, po after 1 hr; assay type: ADME, organism-based; settings: in vivo, read-out: Drug uptake
# [41] = Drug concentration in Balb/c mouse at 3 mg/kg, iv after 7 hrs; assay type: ADME, organism-based; settings: in vivo, read-out: Drug uptake
# [42] = Drug concentration in Balb/c mouse at 10 mg/kg, po after 0.05 hrs; assay type: ADME, organism-based; settings: in vivo, read-out: Drug uptake
# [43] = Half life in rat liver microsomes; assay type: ADME, Microsome
# [44] = Half life in human liver microsomes; assay type: ADME, Microsome
# [45] = Cmax in Balb/c mouse assessed as 6-((5-Fluoropyridin-2-yl)amino)-4-((2-(methylsulfonyl)phenyl)amino)nicotinamide level at 3 mg/kg, iv after 0.5 hrs; assay type: ADME, organism-based; parameters: dose 3 mg/kg, route intravenous; settings: in vivo
# [46] = Cmax in Balb/c mouse assessed as 6-((5-Fluoropyridin-2-yl)amino)-4-((2-(methylsulfonyl)phenyl)amino)nicotinamide level at 10 mg/kg, po after 5 hrs; assay type: ADME, organism-based; parameters: dose 10 mg/kg, route oral; settings: in vivo
# [47] = Metabolic stability in rat liver microsomes assessed as parent compound remaining after 10 mins; assay type: ADME, Microsome; settings: read-out: Stability
# [48] = Drug concentration in Balb/c mouse at 3 mg/kg, iv after 5 hrs; assay type: ADME, organism-based; settings: in vivo, read-out: Drug uptake
# [49] = Metabolic stability in mouse liver microsomes assessed as parent compound remaining after 10 mins; assay type: ADME, Microsome; settings: read-out: Stability
# [50] = Cmax in Balb/c mouse assessed as 6-((5-Fluoropyridin-2-yl)amino)-4-((2-(methylsulfonyl)phenyl)amino)nicotinamide level at 10 mg/kg, po after 3 hrs; assay type: ADME, organism-based; parameters: dose 10 mg/kg, route oral; settings: in vivo
# [51] = target: JAK1/TYK2 (Homo sapiens, UniProt P23458+P29597); test: Inhibition of TYK2/JAK1 in IFNalpha-stimulated human Kit225 cells by steady-glo luciferase assay
# [52] = Drug concentration in Balb/c mouse at 3 mg/kg, iv after 3 hrs; assay type: ADME, organism-based; settings: in vivo, read-out: Drug uptake
# [53] = Cmax in Balb/c mouse assessed as 6-((5-Fluoropyridin-2-yl)amino)-4-((2-(methylsulfonyl)phenyl)amino)nicotinamide level at 10 mg/kg, po after 0.5 hrs; assay type: ADME, organism-based; parameters: dose 10 mg/kg, route oral; settings: in vivo
# T1 sequence (P29597 whole entry, the tested form may be a part): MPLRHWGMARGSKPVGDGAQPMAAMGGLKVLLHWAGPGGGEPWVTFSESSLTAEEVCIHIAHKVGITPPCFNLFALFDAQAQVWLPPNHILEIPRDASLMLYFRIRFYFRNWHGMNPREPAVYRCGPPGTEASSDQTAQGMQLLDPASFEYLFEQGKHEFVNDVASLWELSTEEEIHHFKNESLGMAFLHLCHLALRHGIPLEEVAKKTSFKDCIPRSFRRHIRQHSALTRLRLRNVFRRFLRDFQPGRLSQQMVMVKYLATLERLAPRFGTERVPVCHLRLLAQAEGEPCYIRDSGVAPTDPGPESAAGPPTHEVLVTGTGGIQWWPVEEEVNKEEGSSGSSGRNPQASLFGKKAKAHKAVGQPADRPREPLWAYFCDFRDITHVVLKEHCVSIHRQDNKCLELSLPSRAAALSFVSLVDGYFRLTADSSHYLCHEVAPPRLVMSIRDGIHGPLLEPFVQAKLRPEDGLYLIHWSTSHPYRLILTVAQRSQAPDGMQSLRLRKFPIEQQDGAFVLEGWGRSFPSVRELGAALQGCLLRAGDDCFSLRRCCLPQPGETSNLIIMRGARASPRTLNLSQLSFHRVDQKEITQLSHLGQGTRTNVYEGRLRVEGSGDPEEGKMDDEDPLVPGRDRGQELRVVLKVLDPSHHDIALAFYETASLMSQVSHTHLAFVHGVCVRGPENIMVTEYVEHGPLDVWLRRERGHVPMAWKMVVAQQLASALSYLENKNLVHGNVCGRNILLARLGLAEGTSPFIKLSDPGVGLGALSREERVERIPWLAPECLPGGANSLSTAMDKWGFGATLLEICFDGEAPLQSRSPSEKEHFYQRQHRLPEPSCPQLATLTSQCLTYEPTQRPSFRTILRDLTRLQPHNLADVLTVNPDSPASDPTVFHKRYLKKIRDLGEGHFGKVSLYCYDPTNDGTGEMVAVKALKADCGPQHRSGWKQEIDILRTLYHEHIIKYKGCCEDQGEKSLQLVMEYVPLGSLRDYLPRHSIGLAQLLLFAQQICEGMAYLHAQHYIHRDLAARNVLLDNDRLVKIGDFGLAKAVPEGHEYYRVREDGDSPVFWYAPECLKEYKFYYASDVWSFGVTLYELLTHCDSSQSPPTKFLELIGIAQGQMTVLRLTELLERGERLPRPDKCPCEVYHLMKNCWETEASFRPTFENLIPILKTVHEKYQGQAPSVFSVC
# Chain of JAK2/JAK1 (P23458 whole entry, the tested form may be a part): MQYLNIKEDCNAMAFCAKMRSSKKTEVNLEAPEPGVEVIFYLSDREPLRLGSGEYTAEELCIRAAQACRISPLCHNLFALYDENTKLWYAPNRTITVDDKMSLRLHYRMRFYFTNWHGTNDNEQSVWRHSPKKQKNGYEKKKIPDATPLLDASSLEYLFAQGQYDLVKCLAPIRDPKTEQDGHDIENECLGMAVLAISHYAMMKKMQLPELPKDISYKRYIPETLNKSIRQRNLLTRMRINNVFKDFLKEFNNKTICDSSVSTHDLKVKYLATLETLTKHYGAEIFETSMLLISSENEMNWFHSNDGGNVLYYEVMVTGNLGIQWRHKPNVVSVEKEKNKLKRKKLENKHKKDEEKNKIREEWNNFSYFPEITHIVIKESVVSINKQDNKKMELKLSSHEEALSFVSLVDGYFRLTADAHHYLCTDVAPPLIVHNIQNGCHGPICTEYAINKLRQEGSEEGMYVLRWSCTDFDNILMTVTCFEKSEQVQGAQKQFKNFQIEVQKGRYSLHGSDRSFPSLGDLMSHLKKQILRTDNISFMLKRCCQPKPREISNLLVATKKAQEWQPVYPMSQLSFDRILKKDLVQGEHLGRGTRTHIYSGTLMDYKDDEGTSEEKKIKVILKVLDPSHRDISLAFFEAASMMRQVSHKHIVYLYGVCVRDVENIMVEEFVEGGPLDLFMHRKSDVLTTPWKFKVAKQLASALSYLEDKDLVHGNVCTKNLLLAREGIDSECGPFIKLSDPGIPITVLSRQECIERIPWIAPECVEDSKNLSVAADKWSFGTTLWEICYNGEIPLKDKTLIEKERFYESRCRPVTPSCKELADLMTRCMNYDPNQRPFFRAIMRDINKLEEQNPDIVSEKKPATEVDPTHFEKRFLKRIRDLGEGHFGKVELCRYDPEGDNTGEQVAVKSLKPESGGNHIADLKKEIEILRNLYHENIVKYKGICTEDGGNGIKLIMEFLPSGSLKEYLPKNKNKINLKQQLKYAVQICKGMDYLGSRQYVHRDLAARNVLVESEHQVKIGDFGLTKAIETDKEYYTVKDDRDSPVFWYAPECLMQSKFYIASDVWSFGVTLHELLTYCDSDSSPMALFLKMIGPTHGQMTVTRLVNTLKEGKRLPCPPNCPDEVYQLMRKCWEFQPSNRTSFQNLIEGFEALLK
# Chain of JAK2/JAK1 (O60674 whole entry, the tested form may be a part): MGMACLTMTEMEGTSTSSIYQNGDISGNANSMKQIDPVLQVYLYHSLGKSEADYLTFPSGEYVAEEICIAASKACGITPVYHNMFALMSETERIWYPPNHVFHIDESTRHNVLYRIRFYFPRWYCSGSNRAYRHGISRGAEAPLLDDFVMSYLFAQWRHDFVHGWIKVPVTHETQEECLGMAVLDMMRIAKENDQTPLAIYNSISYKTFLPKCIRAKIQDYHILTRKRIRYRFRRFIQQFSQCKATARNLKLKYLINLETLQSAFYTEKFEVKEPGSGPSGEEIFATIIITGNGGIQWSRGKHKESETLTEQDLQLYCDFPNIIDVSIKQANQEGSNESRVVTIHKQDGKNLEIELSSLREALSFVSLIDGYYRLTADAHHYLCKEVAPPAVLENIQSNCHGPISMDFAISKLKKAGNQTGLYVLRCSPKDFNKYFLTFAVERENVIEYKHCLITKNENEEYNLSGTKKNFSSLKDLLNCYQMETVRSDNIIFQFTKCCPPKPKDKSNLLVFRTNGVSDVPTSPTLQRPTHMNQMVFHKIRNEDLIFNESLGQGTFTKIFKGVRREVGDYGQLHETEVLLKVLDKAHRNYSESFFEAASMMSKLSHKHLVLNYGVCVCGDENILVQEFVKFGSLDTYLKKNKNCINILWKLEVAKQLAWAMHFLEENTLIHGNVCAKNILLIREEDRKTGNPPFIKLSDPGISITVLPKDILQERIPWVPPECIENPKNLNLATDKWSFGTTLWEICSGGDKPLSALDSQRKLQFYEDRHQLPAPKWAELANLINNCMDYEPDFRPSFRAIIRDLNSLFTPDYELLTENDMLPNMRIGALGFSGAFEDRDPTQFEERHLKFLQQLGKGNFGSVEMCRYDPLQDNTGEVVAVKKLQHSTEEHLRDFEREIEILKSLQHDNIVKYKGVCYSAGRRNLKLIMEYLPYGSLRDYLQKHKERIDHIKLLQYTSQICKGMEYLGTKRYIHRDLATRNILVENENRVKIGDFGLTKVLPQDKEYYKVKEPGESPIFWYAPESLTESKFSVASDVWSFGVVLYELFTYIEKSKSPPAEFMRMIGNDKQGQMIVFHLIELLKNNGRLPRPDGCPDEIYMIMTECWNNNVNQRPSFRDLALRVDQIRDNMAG
# Chain of JAK1/TYK2 (P23458 whole entry): as the sequence (P23458 whole entry, the tested form may be a part) above
# Chain of JAK1/TYK2 (P29597 whole entry): as the sequence (P29597 whole entry, the tested form may be a part) above
# Chain of Tyrosine-protein kinase JAK1 (P23458 whole entry, the tested form may be a part): as the sequence (P23458 whole entry, the tested form may be a part) above
# Chain of JAK2/TYK2 (O60674 whole entry): as the sequence (O60674 whole entry, the tested form may be a part) above
# Chain of JAK2/TYK2 (P29597 whole entry): as the sequence (P29597 whole entry, the tested form may be a part) above
# Chain of Tyrosine-protein kinase JAK2 (O60674 whole entry, the tested form may be a part): as the sequence (O60674 whole entry, the tested form may be a part) above
# Chain of JAK3/JAK1 (P52333 whole entry): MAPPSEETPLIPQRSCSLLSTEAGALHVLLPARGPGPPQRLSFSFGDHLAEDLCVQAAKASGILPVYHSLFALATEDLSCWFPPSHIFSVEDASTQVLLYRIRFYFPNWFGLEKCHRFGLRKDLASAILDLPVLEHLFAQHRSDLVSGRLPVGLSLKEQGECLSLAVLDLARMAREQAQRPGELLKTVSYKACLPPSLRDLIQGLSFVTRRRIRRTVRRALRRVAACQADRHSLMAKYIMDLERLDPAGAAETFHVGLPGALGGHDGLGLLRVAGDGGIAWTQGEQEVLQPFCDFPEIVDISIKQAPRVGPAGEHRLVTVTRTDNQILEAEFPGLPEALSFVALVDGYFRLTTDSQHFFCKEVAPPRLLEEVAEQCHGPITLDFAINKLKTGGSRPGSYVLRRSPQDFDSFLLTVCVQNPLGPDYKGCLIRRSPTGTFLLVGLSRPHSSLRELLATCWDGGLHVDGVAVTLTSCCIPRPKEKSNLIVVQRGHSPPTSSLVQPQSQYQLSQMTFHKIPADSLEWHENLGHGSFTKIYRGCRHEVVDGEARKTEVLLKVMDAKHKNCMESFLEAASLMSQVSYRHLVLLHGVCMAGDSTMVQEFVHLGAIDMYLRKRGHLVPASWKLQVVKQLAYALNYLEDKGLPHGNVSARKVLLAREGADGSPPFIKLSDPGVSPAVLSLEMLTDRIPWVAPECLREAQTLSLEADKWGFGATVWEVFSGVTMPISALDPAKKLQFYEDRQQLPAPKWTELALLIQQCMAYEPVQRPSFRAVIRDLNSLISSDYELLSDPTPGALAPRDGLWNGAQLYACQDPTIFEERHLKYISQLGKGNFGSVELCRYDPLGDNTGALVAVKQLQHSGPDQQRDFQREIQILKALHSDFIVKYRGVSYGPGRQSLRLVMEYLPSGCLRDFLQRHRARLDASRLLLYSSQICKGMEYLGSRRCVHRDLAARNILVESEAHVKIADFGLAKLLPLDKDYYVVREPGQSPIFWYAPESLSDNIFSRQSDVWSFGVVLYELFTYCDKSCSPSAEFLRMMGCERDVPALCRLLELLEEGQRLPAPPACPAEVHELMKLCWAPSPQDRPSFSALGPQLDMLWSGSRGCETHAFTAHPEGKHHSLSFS
# Chain of JAK3/JAK1 (P23458 whole entry): as the sequence (P23458 whole entry, the tested form may be a part) above
compound,measurement,setting,value
[2H]C([2H])([2H])NC(=O)c1cnc(Nc2ccc(F)cn2)cc1Nc1ccccc1S(C)(=O)=O,Cmax,[1],4.9 nM
same,concentration at 0.5 h,[2],2400 nM
same,fraction unbound,[3],0.13
same,Cmax,[4],4.9 nM
same,Cmax,[5],4.9 nM
same,Cmax,[6],4.9 nM
same,Papp A→B,[7],5.8 ×10⁻⁶ cm/s
same,remaining at 10 min,[8],85%
same,half-life,[9],35 min
same,efflux ratio,[10],9.3
same,AUC(0-t),[11],7.8 µM·h
same,IC50,[12],> 12500 nM
same,Cmax,[13],4.9 nM
same,concentration at 1 h,[14],1500 nM
same,AUC(0-t),[15],5 µM·h
same,concentration at 5 h,[16],1300 nM
same,IC50,[17],0.49 nM
same,AUC(0-t) at 7 h,[18],7.83 µM·h
same,half-life,[19],6 min
same,IC50,[20],> 2000 nM
same,Cmax,[21],4.9 nM
same,clearance,[22],25 mL/min/kg
same,IC50,[23],110 nM
same,concentration at 3 h,[24],1300 nM
same,Cmax,[25],1440 nM
same,IC50,[26],> 50000 nM
same,IC50,[27],> 12500 nM
same,IC50,[28],> 50000 nM
same,concentration at 7 h,[29],260 nM
same,concentration at 0.5 h,[30],1400 nM
same,concentration at 0.05 h,[31],2800 nM
same,half-life,[32],16 min
same,Vd,[33],2.7 L/kg
same,IC50,[34],160 nM
same,Cmax,[35],4.9 nM
same,IC50,[36],600 nM
same,Cmax,[37],20200 nM
same,half-life,[38],72 min
same,Cmax,[39],4.9 nM
same,concentration at 1 h,[40],1400 nM
same,concentration at 7 h,[41],47 nM
same,concentration at 0.05 h,[42],750 nM
same,half-life,[43],44 min
same,half-life,[44],69 min
same,Cmax,[45],4.9 nM
same,Cmax,[46],4.9 nM
same,remaining at 10 min,[47],91%
same,concentration at 5 h,[48],270 nM
same,remaining at 10 min,[49],81%
same,Cmax,[50],4.9 nM
same,IC50,[51],53 nM
same,concentration at 3 h,[52],470 nM
same,Cmax,[53],4.9 nM
